The structures appear in SMILES notation. Entries after “also recorded” stand apart in the source; their conditions may differ.

Experiment [1] has as its system medial ganglionic eminence (MGE)-derived neural progenitors. The experiment can be described thus: HD-DoE stage 4, 12-factor experiment: SOX6 expression. To be noted: for impact on expression of SOX6: dynamic profile, in words; for factor contribution, expression of SOX6: significant negative effect, model optimized for maximal SOX6. Type of experiment: cell-based, human. The source says: These effectors are small chemical compounds or proteins. They are commonly used during the differentiation of stem cells to specific cell linage. The choice of the effectors was based on the current literature on forebrain neural induction and differentiation of neural progenitor cells to mature neurons.
To evaluate the effectors on SST differentiation, experiments with 8 or 12 factors were designed to assess the responses of cells to 48 or more combinations of effectors in a range of concentrations. To analyze the models, we focused on expression of genes involved in development and patterning of the forebrain interneurons maturation including LHX6 (Liodis et al. (2007) J. Neurosci. 27:3078-3089; Yuan et al. (2018) Elife 7: e37382), SOX6 (Azim et al. (2009) Nature Neurosci. 12:1238-1247; Batista-Brito et al. (2009) Neuron 63:466-481), DLX5 (de Lombares et al. (2019) Aging (Albany NY) 11:6638; Wang et al. (2010) J. Neurosci. 30:5334-5345) and ASCL1 (Barretto et al. (2020) J. Neurosci. Meth. 334:108548; Shi et al. (2016) J. Biol. Chem. 291:13560-13570). At later stages we focused on interneuron maturation genes including somatostatin and absence of Parvalbumin (Horn and Nicoll (2018) Proc. Natl. Acad. Sci. 115:589-594). The impacts of each effector on gene expression level are defined by a parameter called factor contribution that is calculated for each effector during the modeling.
To identify the recipe for differentiation at stage 4, at least 48 different combinations of effectors were robotically prepared by the Design-of-Experiments compression through D-optimality. The effector combinations were prepared in a basal media and were subsequently added to the cells, which were then allowed to differentiate. Three days later, RNA extraction was performed, and gene expression levels were examined using quantitative PCR analysis. The data was normalized and modeled using partial least squares regression analysis to the effector design, resulting in the generation of gene-specific models, which after model tuning for maximal predictive power, provided explanation of the effectors ability to control the expression of individual genes, combinatorically, and individually. Solutions within the tested space could then be explored to address desirability.
IGF-1 activates the IGF-1 pathway, promotes neuron axonal growth, and establishes the synapse of interneurons. GDNF is the […] and can activate the GDNF pathway. MK2206 is an AKT inhibitor and can inhibit cell proliferation and promote neuronal maturation. PD173074 and BLU-554 are FGFR inhibitors. The FGF pathway is required for the maintenance of neural progenitor cells. Inhibition of the FGFR pathway promotes neural maturation. GSI-XX is a notch pathway inhibitor. Notch pathway inhibits neural progenitor cell differentiation. Inhibition of the Notch pathway promotes neural differentiation.
To find the set of factors that have the potential to optimize SOX6 in this experiment, a new assessment was done through dynamic profile analysis with focus on maximal expression of SOX6.

The test system of experiment [2] is human pluripotent stem cells. The experiment can be described thus: Factor criticality analysis, stage 1 recipe (dynamic profile analysis). Type of experiment: cell-based. To be noted: other five stage 1 factors present, FIG. 11; for expression level of FEZF2 when the factor is removed: 2000 with all six factors; for expression level of SIX3 when the factor is removed: 3000 with all six factors; for expression level of OTX2 when the factor is removed: 5500 with all six factors. The source says: To assess the impact of the elimination of each validated factor, dynamic profile analysis was used and compared the expression level of genes of interest in absence of each finalized factor while others are present. […] When Purmorphamine was removed, levels of FEZF2 and SIX3 were decreased to 1000 and below 3000, while levels of OTX2 increased to 6500.

The test system of experiment [3] is stage 2 neural stem cells. As to the kind of experiment: HD-DoE stage 3 experiment: ASCL1, LHX6, DLX1 expression. The format is cell-based, human. The procedure:
To further guide the cells to medial ganglionic eminence progenitor fate, an additional HD-DoE experiment was performed for 3 days on cells that were treated with stage 1 and stage 2 media for total of 6 days prior to start of the experiment. This experiment included 13 effectors, LDN193189, A8301, GNF5837, AZD3147, GSI-XX, Takinib, PD0325901, PD173074, BLU9931, IGF-1, MHY1485, Purmorphamine and Prostratin. In this model, we focused on maximum expression of genes expressed in neuronal progenitor cells in medial ganglionic eminence (MGE) region including ASCL1, LHX6 and DLX1 (Silberberg et al. (2016) Neuron 92:59-74). When the model was optimized for maximum expression of ASCL1 at 1700, A8301, GSI-XX, Purmorphamine and Takinib, which is an inhibitor of TAK1 pathway, had the highest factor contributions, 18.1, 14.1, 12.7 and 10.1 respectively. […] MHY 1485 also had positive contribution however the factor was below 2 (FIG. 9).
Therefore, six effectors including A8301, GSI-XX, Takinib, GNF5837, IGF-1 and Purmorphamine were finalized as ingredients of stage 3 differentiation media. A representative recipe for Stage 3 differentiation is summarized below in Table 3.

For experiment [4], the system named is stage 2 neural stem cells. As to the kind of experiment: Factor criticality analysis, stage 3 recipe. The format is cell-based, human. To be noted: other five stage 3 factors present. The procedure: To assess the impact of the elimination of each validated factor, dynamic profile analysis was used and compared the expression level of genes of interest in absence of each finalized factor while others are present.
In the stage 3 recipe, each of the six finalized factors were removed while the other five factors remained present and the expression levels of ASCL1, DLX1 and LHX6 were assessed compared to the presence of all six factors. […] As expected, in the absence of IGF-1, the value of DLX1 increases to 410, however, ASCL1 and LHX6 decreased to 1390 and 220, respectively.

For `c1ccc2c(-c3cnn4cc(-c5ccc(N6CCNCC6)cc5)cnc34)ccnc2c1` [LDN193189], in experiment [1], the “impact on expression of SOX6” value was “negative effect” and the “factor contribution, expression of SOX6” value is 9.8. For the same compound, in experiment [2], the “expression level of FEZF2 when the factor is removed” value (“expression level of FEZF2” for short) was 1000, the “expression level of SIX3 when the factor is removed” value (“expression level of SIX3” below) amounted to 0 and the “expression level of OTX2 when the factor is removed” value (from here on “expression level of OTX2”) is listed as 4000.

Turning to `O=C(NOC[C@H](O)CO)c1ccc(F)c(F)c1Nc1ccc(I)cc1F` [PD0325901], in experiment [1], the “impact on expression of SOX6” value was “negative effect” and the “factor contribution, expression of SOX6” value came out at 5.1. Further, in experiment [2], the “expression level of FEZF2” value is listed as “drop”, the “expression level of SIX3” value is “did not have a significant impact” and the “expression level of OTX2” value is “did not have a significant impact”.

As for `c1ccc2c(Oc3nc(Nc4ccc(N5CCOCC5)cc4)c4ncn(C5CCCCC5)c4n3)cccc2c1` [Purmorphamine], in experiment [3] (dynamic profile, in words), the “impact on expression of ASCL1” value is recorded as “positive trends; also recorded: Positive impact”, the “impact on expression of DLX1” value was “did not have a significant negative impact” and the “impact on expression of LHX6” value was “positive trends; also recorded: Positive impact”. For the same compound, in experiment [3] (positive, model optimized for maximum ASCL1 at 1700), the “factor contribution, expression of ASCL1” value is listed as 12.7. In experiment [2], the “expression level of FEZF2” value is recorded as 1000, the “expression level of SIX3” value is recorded as “below 3000” and the “expression level of OTX2” value was found to be 6500. Also, the “expression level of DLX1 when the factor is removed” value in experiment [4] (220 with all six factors) is reported as “stayed the same”. Besides, the “expression level of LHX6 when the factor is removed” value in experiment [4] (240 with all six factors) stood at 190. Besides, the “expression level of ASCL1 when the factor is removed” value in experiment [4] (1650 with all six factors) worked out at 1200.

Source of the values: patent publication US20250092360A1, “METHODS AND COMPOSITIONS FOR GENERATING SOMATOSTATIN+ INTERNEURONS FROM HUMAN FOREBRAIN NEURAL PROGENITOR CELLS” (Trailhead Biosystems Inc., priority 2023, published 2025).
